PubChem BioAssay (NCI)
“And” between values parts separate entries of the source, which are not always exact repeats. Identical values can stand only once.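 Where inhibition never reached the appropriate level, the endpoint shown equals the highest concentration tested. Otherwise, values were interpolated linearly from a five-concentration, 48-hour dose response in 96-well plates. GI50 is the concentration that inhibits growth by half. TGI: concentration producing complete growth inhibition.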

How the values were obtained:
Assay in all cases: DTP human tumour cell line panel, 48 h
SNB-78 CNS = system: SNB-78 CNS
RXF-631 renal = system: RXF-631 renal
HOP-18 NSCLC = system: HOP-18 NSCLC
T-47D breast = system: T-47D breast
MDA-MB-435 = system: MDA-MB-435
HS 578T breast = system: HS 578T breast
BT-549 breast = system: BT-549 breast
DU-145 prostate = system: DU-145 prostate
MDA-N = system: MDA-N

Row | Compound | TGI (SNB-78 CNS) | TGI (RXF-631 renal) | TGI (HOP-18 NSCLC) | TGI (T-47D breast) | TGI (MDA-MB-435) | TGI (HS 578T breast) | TGI (BT-549 breast) | TGI (DU-145 prostate) | other results
1 | CCOC(=O)NC/C=C/CO | > 100 µM | > 100 µM | > 100 µM | – | – | – | – | – | –
2 | O=C(/C=C/c1ccc(OCC(=O)N2CCN(c3ccccc3)CC2)cc1)c1ccccc1 | > 100 µM | – | > 82.7 µM | – | – | – | – | – | –
3 | COC(=O)/C(=C/c1ccc(OC)cc1)c1cc(OC)c(OC)c(OC)c1 | > 100 µM | – | > 100 µM | > 100 µM | 0.477 µM | 5.69 µM | > 100 µM | 8.56 µM | TGI (MDA-N): 0.43 µM
4 | Cc1c2cc[n+](C)cc2c(C)c2c1[nH]c1ccc(Oc3ccccc3)cc12 | 3.47 µM | – | 21.8 µM and 32.5 µM | – | – | – | – | – | GI50 (SNB-78 CNS): 0.809 µM and 0.266 µM; GI50 (HOP-18 NSCLC): 2.37 µM and 5.56 µM
5 | COc1cccc(OC)c1/C=N\N1C(=O)c2ccccc2C1=O | > 100 µM | > 100 µM | > 100 µM | – | – | – | – | – | –
6 | CC(C)C12CCC3(CCC4C(C)(C(=O)O)CCCC4(C)C3C1)C(CN)C2 (centres undefined) | – | – | – | > 100 µM | > 100 µM | > 100 µM | 95.5 µM | > 100 µM | TGI (MDA-N): 84 µM
7 | O=C1NC2(CCCCC2)C2=C1CCCCC2 | > 100 µM | – | > 100 µM | – | – | – | – | – | –
8 | COc1cc(COC(=O)NC(Cc2cccs2)C(=O)O)c([N+](=O)[O-])cc1OC (centres undefined) | – | – | – | > 100 µM | > 100 µM | > 100 µM | > 100 µM | > 100 µM | TGI (MDA-N): > 100 µM
9 | CC(C)c1nc(Cl)c(Cl)c(Cl)n1 | – | – | – | 42.7 µM | 17.2 µM | 14 µM | 27.1 µM | 20.3 µM | TGI (MDA-N): 19 µM
10 | COC(=O)C1=C(C)N(NC(=O)Nc2ccccc2)C2(N)N(NC(=O)Nc3ccccc3)C(C)=C(C(=O)OC)C12C(=O)OC (centres undefined) | 84.6 µM | – | > 100 µM | – | – | – | – | – | –
11 | CCCCCCCCCCCCCCCC(=O)NCC(OCC)OCC | > 100 µM | > 100 µM | > 100 µM | – | – | – | – | – | –
12 | Cc1c(C(=O)C/C(=N/NC(=O)CC#N)C(N)=O)[n+](=O)c2ccccc2n1[O-] | > 100 µM | > 100 µM | > 100 µM | – | – | – | – | – | –
13 | O=C1COc2cc3c(cc2N1)SCC(=O)N3 | > 100 µM | > 100 µM | > 100 µM | – | – | – | – | – | –
14 | C=CCCC1(CCP(=O)(c2ccccc2)c2ccccc2)OCCO1 | – | – | – | – | > 100 µM | > 100 µM | > 100 µM | > 100 µM | TGI (MDA-N): > 100 µM
15 | Cc1cc(C2(c3cc(C)c(O)c4ncccc34)OC(=O)c3ccccc32)c2cccnc2c1O | – | – | – | – | > 100 µM | – | > 100 µM | > 100 µM | GI50 (BT-549 breast): 5.26 µM; GI50 (DU-145 prostate): 0.242 µM; TGI (MDA-N): > 100 µM
16 | CC1=C2[C@@H](c3ccccc3)C3C=CC2(C=C3C(F)(F)F)N(C(=O)NC2CCCCC2)C1=O (some centres undefined) | > 100 µM | > 100 µM | > 100 µM | – | – | – | – | – | –
17 | CC(=O)OCc1cc2c(s1)C(=O)c1sccc1C2=O | 28.3 µM | – | 0.276 µM | 0.882 µM | 0.0322 µM | 0.422 µM | – | 0.104 µM | –
18 | CCOC(=O)c1c(/C=N\Nc2ccccc2)nc2ccccc2c1-c1ccccc1 | > 100 µM | > 100 µM | > 100 µM | – | – | – | – | – | –
19 | Nc1nc(N)c(-c2ccccc2)c(C(=O)Nc2nccs2)n1 | > 100 µM | > 100 µM | > 100 µM | – | – | – | – | – | –
20 | Cc1cc2c(=O)cc(-c3ccncc3)oc2c(C(=O)O)c1C | > 100 µM | > 100 µM | > 100 µM | – | – | – | – | – | –
21 | Cn1c(=O)c(Oc2ccc(F)cc2F)cc2cnc(NC3CCC(O)CC3)nc21 (centres undefined) | – | – | – | > 25 µM | > 25 µM | > 25 µM | > 25 µM | > 25 µM | GI50 (T-47D breast): > 25 µM; GI50 (MDA-MB-435): > 25 µM; GI50 (HS 578T breast): > 25 µM; GI50 (BT-549 breast): > 25 µM; GI50 (DU-145 prostate): > 25 µM
22 | O=C(NCc1cccnc1)c1ccc([N+](=O)[O-])o1 | – | – | – | 32.4 µM | 4.06 µM | > 9.5 µM | > 15.1 µM | 4.11 µM | GI50 (T-47D breast): 6.9 µM; GI50 (MDA-MB-435): 1.03 µM; GI50 (HS 578T breast): 2.52 µM; GI50 (BT-549 breast): 9.77 µM; GI50 (DU-145 prostate): 1.11 µM
23 | Oc1ccc(/C=N/Nc2nnc(N/N=C/c3ccc(O)cc3O)c3ccccc23)c(O)c1 | – | – | – | 0.633 µM and 1.64 µM | 3.67 µM | 0.954 µM | 0.581 µM and 1.94 µM | 0.831 µM and 5.99 µM | GI50 (T-47D breast): 0.384 µM; GI50 (MDA-MB-435): 0.587 µM; GI50 (HS 578T breast): 0.5 µM; GI50 (BT-549 breast): 0.399 µM; GI50 (DU-145 prostate): 0.432 µM; TGI (MDA-N): 0.93 µM
24 | O=C(O)C12C3C4C1C1C2C3C41I (centres undefined) | > 100 µM | > 100 µM | – | – | – | – | – | – | –
25 | N#Cc1c(N)nc(N2CCOCC2)c(C#N)c1-c1ccc(Cl)cc1Cl | – | – | – | 81.4 µM | 21.9 µM | 45.9 µM | 55.8 µM | 81 µM | GI50 (T-47D breast): 12.9 µM; GI50 (MDA-MB-435): 5.75 µM; GI50 (HS 578T breast): 15.8 µM; GI50 (BT-549 breast): 17.4 µM; GI50 (DU-145 prostate): 24.6 µM
26 | COC(=O)CCSC(=O)Nc1ccccc1Cl | > 100 µM | – | – | – | – | – | – | – | –
27 | O=C(CO[N+](=O)[O-])OCC(=O)c1ccccc1 | – | > 100 µM | – | – | – | – | – | – | –
28 | CC(C)=NO.CC(C)=NO.CC(C)=NO.CC(C)=NO.[Ti] | > 100 µM | > 100 µM | – | – | – | – | – | – | GI50 (SNB-78 CNS): > 100 µM; GI50 (RXF-631 renal): > 100 µM
29 | COc1cc2nccc(Oc3ccc(NC(=O)C4(C(=O)Nc5ccc(F)cc5)CC4)cc3)c2cc1OC | – | – | – | > 100 µM | > 10 µM and 21.2 µM | > 10 µM and 10.8 µM | > 10 µM and 72.4 µM | > 100 µM | GI50 (T-47D breast): > 10 µM and 4.36 µM; GI50 (MDA-MB-435): 7.54 µM and 2.67 µM; GI50 (HS 578T breast): 0.45 µM and 0.857 µM; GI50 (BT-549 breast): > 10 µM and 8.8 µM; GI50 (DU-145 prostate): > 10 µM and 5.47 µM
30 | O=C1COc2c(CCNCCN(C(=O)CCNCCc3ccc(Cl)c(Cl)c3)C3CCCCC3)ccc(O)c2N1 | – | – | – | 40.1 µM | 28.5 µM | 34.9 µM | 29 µM | 32 µM | GI50 (T-47D breast): 17.3 µM; GI50 (MDA-MB-435): 14.9 µM; GI50 (HS 578T breast): 15.4 µM; GI50 (BT-549 breast): 14.3 µM; GI50 (DU-145 prostate): 17.7 µM
